Assay results from patent publication US20240199561A1, “INHIBITORS OF DYRK AND PIM” (COLD SPRING HARBOR LABORATORY, priority 2021, published 2024).
pIC50: −log10 of the molar value. “Also recorded” adds a separate entry of the source.

Columns and labels:
[1] = molecular target: panel of 140 different kinases; experiment: Panel of 140 different kinases; type: biochemical
DYRK1A = DYRK1A (Homo sapiens (Human), UniProt Q13627); experiment: Radiolabelled kinase assay (IC50 determination), DYRK1A; conditions: read-out: DYRK1A IC50 (nm)
Experimental: Protein kinase assays using radiolabeled [γ-^32P] […] In this assay, the activity of a protein kinase is measured using an appropriate acceptor peptide or protein substrate. The assay method involves the use of P81 phosphocellulose paper squares to capture the phosphorylated peptides or proteins resulting from the protein kinase reaction. The activity of DYRK1A was measured by its ability to phosphorylate the peptide termed Woodtide that is derived from the substrate FKHR (Forkhead in rhabdomyosarcoma) at Ser329. Two lysine residues are added at the N-terminus of the peptide to facilitate its binding to the phosphocellulose paper ([sequence]). Assays were carried out at 30° C. for 10 mins using 25 μM Woodtide in 50 mM HEPES pH 7.5, 50 mM MgCl2, 50 mM DTT and 0.1 mM [γ-^32P] ATP (106 c.p.m./nmol). […] The readings were taken using a scintillation counter and data was analyzed using GraphPad Prism 8. One unit of enzyme activity was the amount that catalyzed the phosphorylation of 1 nmol of Woodtide in 1 min.

PIM1 = PIM1 (Homo sapiens (Human), UniProt P11309); experiment: Kinase assay, PIM1 IC50; type: biochemical
PIM1, sequence (P11309 whole entry): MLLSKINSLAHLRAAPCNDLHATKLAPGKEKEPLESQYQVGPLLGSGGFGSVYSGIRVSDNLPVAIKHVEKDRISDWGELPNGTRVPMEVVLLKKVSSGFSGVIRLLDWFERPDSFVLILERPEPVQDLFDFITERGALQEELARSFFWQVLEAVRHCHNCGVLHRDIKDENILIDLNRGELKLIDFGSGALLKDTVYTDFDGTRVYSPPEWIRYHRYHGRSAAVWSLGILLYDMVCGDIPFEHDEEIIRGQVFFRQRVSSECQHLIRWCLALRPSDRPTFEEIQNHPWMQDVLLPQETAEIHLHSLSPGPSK

LN229 [2] = experiment: Invasion assay (Matrigel), LN229; type: cell-based
Excerpt: (§1) The Invasion Assay provides an in vitro system to study cell invasion of malignant and normal cells. Specific applications include assessment of the metastatic potential of tumor cells. Invasion chambers coated with Corning® Matrigel® matrix provide cells with the conditions that allow assessment of their invasive capacity in vitro. Corning Matrigel matrix serves as a reconstituted basement membrane in vitro, occluding the pores of the membrane and blocking non-invasive cells from migrating through the membrane. In contrast, invasive cells (malignant and non-malignant) secrete proteases that enzymatically degrade the Corning Matrigel matrix and enable invasion through the membrane pores.
(§2) In order to assess whether DYRK1A plays a role in cell invasion, we performed an invasion assay using the two GBM cell lines U87MG and LN229. […] Inhibition of DYRK1A using FC2 and FC3 can also decrease the metastatic potential of GBM cells, thus making them good therapeutic candidates for EGFR-dependent GBM.

DYRK1A point mutants [3] = molecular target: DYRK1A point mutants (Homo sapiens, UniProt Q13627, M240R); experiment: In-vitro radiolabeled kinase assays against DYRK1A point mutants; type: biochemical; conditions: M240R
Excerpt: (§3) Kinase domains contain a gatekeeper residue that partially or fully blocks a hydrophobic region deep in the ATP binding pocket. The gatekeeper residue contributes to the selectivity of kinases for small molecule inhibitors. Based on the DYRK1A crystal structure with FC3 and sequence alignment, the gatekeeper residue in DYRK1A is Phe238 which is replaced by a smaller […] in case of PIM1 and other PIM kinases. Similarly, Met240, two residues after the gatekeeper residue was very unique to DYRK1A. Another interesting residue was Ser241 which was conserved among DYRKs. Point mutants of the gatekeeper residue (F238L), Met240 (M240R), […] and a double mutant (F238LM240R) were created to evaluate if the point mutants show resistance towards FC2 and FC3.
(§4) In-vitro radiolabeled kinase assays were used to determine the IC50s of FC2 and FC3 against the DYRK1A point mutants. There was no change in the Km or Vmax of the point mutants of DYRK1A and their activity was similar to wild-type DYRK1A.

DYRK1A point mutants [4] = molecular target: DYRK1A point mutants (Homo sapiens, UniProt Q13627, F238L); experiment: as above; type: biochemical; conditions: F238L
Excerpt: as §3, §4

DYRK1A point mutants [5] = molecular target: DYRK1A point mutants (Homo sapiens, UniProt Q13627, F238L/M240R); experiment: as above; type: biochemical; conditions: F238LM240R
Excerpt: as §3, §4

U87MG cells [6] = experiment: Neurosphere proliferation assay, U87MG; type: cell-based; conditions: for proliferation of U87MG cells, assessed by neurosphere diameter: 5 μM, 10 μM, and 20 μM, compared to DMSO vehicle control; for neurosphere proliferation: U87MG DYRK1A knockouts rescued with point mutant F238LM240R, compared to DYRK1A wild-type treated cells; for neurosphere proliferation (neurosphere numbers and size): U87MG, serum free conditions with growth factors
Experimental: (§5) Neurospheres are free-floating 3-D clusters of neural stem cells that are grown in serum-free media supplemented with growth factors. These cells have the capacity to self-renew and differentiate into cell types present within the tumor of origin. They are also responsible for tumor propagation, recurrence and resistance to traditional treatments. Neurosphere assays are commonly used to uncover more relevant brain tumor biology than traditional culture conditions. Several parameters can be assayed including neurosphere number and size. Neurosphere formation remained a significant predictor of clinical outcome in GBM, independent of the Ki67 labeling index. […] Self-renewal is the ability of a single cell to form a neurosphere.
(§6) Two EGFR-dependent GBM cell-lines, U87MG and LN229 were grown under serum free conditions with growth factors to induce the formation of neurospheres. Their stemness was confirmed using a western blot to detect stem cell markers. […] This reaffirmed the fact that DYRK1A plays a crucial role in regulating neurosphere self-renewal in GBM.
Compounds of Formula I therefore have an anticancer potential and inhibit proliferation of cells with a cancer phenotype.

LN229 [7] = experiment: Neurosphere proliferation assay, LN229; type: cell-based; conditions: LN229, serum free conditions with growth factors
Experimental: as §5, §6

U87MG cells [8] = experiment: Invasion assay (Matrigel), U87MG; type: cell-based; conditions: for ability of the cells to invade the Matrigel chamber / cell invasion (cells crossing matrigel membrane): U87MG; for invasion: U87MG DYRK1A knockouts rescued with point mutant F238LM240R, compared to DYRK1A wild-type treated cells; for cell invasion (cells crossing matrigel membrane): 5 μM and 10 μM, relative to DMSO vehicle
Excerpt: as §1, §2

DYRK1A point mutants [9] = molecular target: DYRK1A point mutants (Homo sapiens, UniProt Q13627, S242A); experiment: In-vitro radiolabeled kinase assays against DYRK1A point mutants; type: biochemical; conditions: S242A
Excerpt: as §3, §4

**Q.** Which kinase specificity [1] does the source give for Oc1ccc(-c2nc3cc4c(cc3s2)OCO4)cc1O [FC-2, 4-([1,3]Dioxolo[4′,5′:4,5]benzo[1,2-d]thiazol-6-yl)benzene-1,2-diol] here?
**A.** Its kinase specificity is “very specific to the DYRK family of kinases”.

**Q.** What about the pIC50 (DYRK1A) of the same compound?
**A.** Its pIC50 is 7.72.

**Q.** What about the “PIM1 IC50 (nm)” value (PIM1) of the same compound?
**A.** Its value is “Micromolar inhibition”.

**Q.** And the “ability of the cells to invade the Matrigel chamber” value (shortened to “ability of the cells”) (LN229 [2])?
**A.** Its value is “impaired the ability of the cells to invade”.

**Q.** What about the “IC50 against DYRK1A point mutant versus wild-type” value (DYRK1A point mutants [3]) of the same compound?
**A.** The value was “significantly higher”.

**Q.** What about the “IC50 against DYRK1A point mutant versus wild-type” value (DYRK1A point mutants [4]) of the same compound?
**A.** Its value is “significantly higher”.

**Q.** What about the “IC50 against DYRK1A double mutant versus wild-type” value (DYRK1A point mutants [5]) of the same compound?
**A.** Its value is “even higher”.

**Q.** And the “proliferation of U87MG cells, assessed by neurosphere diameter” value (“proliferation of U87MG cells, assessed” below) (U87MG cells [6])?
**A.** Its value is “significantly inhibited proliferation”.

**Q.** And the neurosphere proliferation (U87MG cells [6])?
**A.** The neurosphere proliferation was “did not show a decrease”.

**Q.** And the “neurosphere proliferation (neurosphere numbers and size)” value (U87MG cells [6])?
**A.** The value was “significant decrease in neurosphere proliferation”.

**Q.** What about the “neurosphere proliferation (neurosphere numbers and size)” value (LN229 [7]) of the same compound?
**A.** Its value is “significant decrease in neurosphere proliferation”.

**Q.** What about the “ability of the cells” value (U87MG cells [8]) of the same compound?
**A.** The value was “impaired the ability of the cells to invade”.

**Q.** What about the invasion (U87MG cells [8]) of the same compound?
**A.** The invasion was “did not show a decrease”.

**Q.** And the “cell invasion (cells crossing matrigel membrane)” value (U87MG cells [8])?
**A.** The value was “significantly inhibited cell invasion; also recorded: reduces the invasive ability”.

**Q.** What does the source list for COc1ccc(C(=O)c2nc3cc(O)c(O)cc3s2)cc1F [FC-8, (5,6-Dihydroxybenzo[d]thiazol-2-yl)(3-fluoro-4-methoxyphenyl)methanone]?
**A.** pIC50 (DYRK1A): 6.62; pIC50 (PIM1): 6.50

**Q.** How did the pIC50 (DYRK1A) turn out when Oc1ccc(-c2nc3ccc4nn[nH]c4c3s2)cc1O [FC-10, 4-(1H-thiazolo[5′,4′:3,4]benzo[1,2-d][1,2,3]triazol-7-yl)benzene-1,2-diol] was run?
**A.** Its pIC50 is 6.96.

**Q.** With O=[N+]([O-])c1ccc(O)cc1-c1nc2cc3c(cc2s1)OCO3 [FC-115] as the compound, how does the pIC50 (DYRK1A) read?
**A.** Its pIC50 is 6.28.

**Q.** What about the “PIM1 IC50 (nm)” value (PIM1) of the same compound?
**A.** The value was “No Inhibition”.

**Q.** How did the pIC50 (PIM1) turn out when O=C(c1nc2cc(O)c(O)cc2s1)c1cc(O)c(O)cc1O [FC-63] was run?
**A.** Its pIC50 is 6.62.

**Q.** How did the pIC50 (DYRK1A) turn out when COc1ccc(O)c2nc(C(=O)c3ccc(O)c(O)c3)sc12 [FC-7A, (3,4-dihydroxyphenyl)(4-hydroxy-7-methoxybenzo[d]thiazol-2-yl)methanone] was run?
**A.** Its pIC50 is 6.25.

**Q.** How did the pIC50 (DYRK1A) turn out when Oc1ccc(-c2nc3c(ccc4[nH]cnc43)s2)cc1O [FC-14, 4-(6H-imidazo[4′,5′:5,6]benzo[1,2-d]thiazol-2-yl)benzene-1,2-diol] was run?
**A.** Its pIC50 is 6.40.

**Q.** Which results are given for COc1cc(O)c(C(=O)c2nc3cc(O)ccc3s2)cc1O [FC-6, (2,5-Dihydroxy-4-methoxyphenyl)(5-hydroxybenzo[d]thiazol-2-yl)methanone]?
**A.** pIC50 (DYRK1A): 6.74; pIC50 (PIM1): 6.26

**Q.** How did the pIC50 (DYRK1A) turn out when Oc1ccc(-c2nc3cc4cn[nH]c4cc3s2)cc1O [FC-204, 4-(1H-thiazolo[4,5-f]-indazol-6-yl)benzene-1,2-diol] was run?
**A.** The pIC50 was 7.24.

**Q.** What does the source list for O=C(c1ccc(O)c(O)c1)c1nc2c(O)ccc(O)c2s1 [FC-7, (4,7-Dihydroxybenzo[d]thiazol-2-yl)(3,4-dihydroxyphenyl)methanone]?
**A.** pIC50 (DYRK1A): 6.64; PIM1 IC50 (nm) (PIM1): Micromolar inhibition

**Q.** How did the pIC50 (DYRK1A) turn out when COc1ccc(-c2nc3cc4cn[nH]c4cc3s2)cc1OC [FC-205, 6-(3,4-dimethoxyphenyl)-1H-thiazolo[4,5-f]-indazole] was run?
**A.** The pIC50 was 6.69.

**Q.** With O=C(c1ccc(O)c(O)c1)c1nc2cc(O)c(O)cc2s1 [FC-3, (5,6-Dihydroxybenzo[d]thiazol-2-yl)(3,4-dihydroxyphenyl)methanone] as the compound, how does the kinase specificity [1] read?
**A.** Its kinase specificity is “very specific to the DYRK family of kinases”.

**Q.** What about the pIC50 (DYRK1A) of the same compound?
**A.** Its pIC50 is 7.28.

**Q.** And the “PIM1 IC50 (nm)” value (PIM1)?
**A.** The value was “Micromolar inhibition”.

**Q.** And the “ability of the cells” value (LN229 [2])?
**A.** The value was “impaired the ability of the cells to invade”.

**Q.** And the “IC50 against DYRK1A point mutant versus wild-type” value (DYRK1A point mutants [3])?
**A.** The value was “significantly higher”.

**Q.** And the “IC50 against DYRK1A point mutant versus wild-type” value (DYRK1A point mutants [9])?
**A.** The value was “significantly higher”.

**Q.** And the “IC50 against DYRK1A point mutant versus wild-type” value (DYRK1A point mutants [4])?
**A.** The value was “significantly higher”.

**Q.** What about the “IC50 against DYRK1A double mutant versus wild-type” value (DYRK1A point mutants [5]) of the same compound?
**A.** Its value is “even higher”.

**Q.** And the “proliferation of U87MG cells, assessed” value (U87MG cells [6])?
**A.** Its value is “significantly inhibited proliferation”.

**Q.** What about the neurosphere proliferation (U87MG cells [6]) of the same compound?
**A.** Its neurosphere proliferation is “did not show a decrease”.

**Q.** And the “neurosphere proliferation (neurosphere numbers and size)” value (U87MG cells [6])?
**A.** Its value is “significant decrease in neurosphere proliferation”.

**Q.** What about the “neurosphere proliferation (neurosphere numbers and size)” value (LN229 [7]) of the same compound?
**A.** The value was “significant decrease in neurosphere proliferation”.

**Q.** What about the “ability of the cells” value (U87MG cells [8]) of the same compound?
**A.** The value was “impaired the ability of the cells to invade”.

**Q.** What about the invasion (U87MG cells [8]) of the same compound?
**A.** The invasion was “did not show a decrease”.

**Q.** And the “cell invasion (cells crossing matrigel membrane)” value (U87MG cells [8])?
**A.** The value was “significantly inhibited cell invasion; also recorded: reduces the invasive ability”.

**Q.** How did the pIC50 (DYRK1A) turn out when Oc1ccc(-c2nc3ccc4[nH]ncc4c3s2)cc1O [FC-196, 4-(6H-thiazolo[5,4-e]indazol-2-yl)benzene-1,2-diol] was run?
**A.** The pIC50 was 6.30.

**Q.** With Oc1cc2nc(-c3ccc(O)c(O)c3O)sc2cc1O [FC-5] as the compound, how does the pIC50 (DYRK1A) read?
**A.** Its pIC50 is 7.02.

**Q.** And the pIC50 (PIM1)?
**A.** The pIC50 was 6.84.

**Q.** With CCN1/C(=C/C(C)=O)Sc2ccc(O)cc21 [INDY, reference compound] as the compound, how does the “proliferation of U87MG cells, assessed” value (U87MG cells [6]) read?
**A.** The value was “did not inhibit proliferation”.

**Q.** With S=C1Cc2ccc(-c3nc4cc5c(cc4s3)OCO5)cc2N1 [FC-208] as the compound, how does the pIC50 (DYRK1A) read?
**A.** The pIC50 was 6.25.

**Q.** What does the source list for COc1cc(O)c(C(=O)c2nc3cc(O)c(O)cc3s2)cc1O [FC-4, (2,5-Dihydroxy-4-methoxyphenyl)(5,6-dihydroxybenzo[d]thiazol-2-yl)methanone]?
**A.** pIC50 (DYRK1A): 7.06; pIC50 (PIM1): 6.76
